Where two headings read alike, the source gives them in different places.
What was measured:
[1] = tested on: isolated guinea pig auricle; assay: Maximum stimulation frequency test on isolated guinea pig auricle; conditions: Cavia porcellus; 10 mg/l; read-out: Δ% MFS (decrease of the maximum frequency followed)
Method: The maximum frequency test carried out studied the maximum stimulation frequency which can cause contraction of an isolated guinea pig auricle placed in a solution containing a derivative of the invention. The measurement was carried out before (control period) and then after introduction of the derivative into the solution.

[2] = Acute toxicity (lethal dose 50) in the mouse; conditions: in vivo
Text: The acute toxicity of the deriatives of the invention were studied by oral administration (P.O) to the mouse (10 animals, 5 males and 5 females per dose) and calculation of the lethal dose 50 (LD 50) in accordance with the method of Litchfield and Wilcoxon (J. Pharmacol., 96, 99-113 (1949)). Table 1 gives the LD 50 values of the derivatives of the invention.
In certain cases, the LD 50 was also studied after intraperitoneal injection (I.P.) of the derivatives.

[3] = tested on: ventricular arrhythmias induced by aconitine in the anesthetized rat; assay: Antiarrhythmic test with aconitine on the rat; type: in vivo
Method: The derivatives of the invention were used in the test with aconitine on the rat. For this test, the anesthetized rat was intoxicated by an intravenous perfusion of aconitine (solution of aconitine nitrate: 15 mg/l; speed of perfusion: 0.4 ml/min) while its electrocardiogram was recorded permanently. During perfusion at constant speed, the time necessary for the appearance of ventricular arrhythmias, successively ventricular extrasystoles (ESV), ventricular tachycardium (TV) and ventricular fibrillation (FV) was measured.
The animals were divided into a control group (untreated) and treated group (different doses). The results are expressed as a percentage of prolonging the time of the appearance of the arrhythmias in the treated groups in relation to the control group. This prolongation of arrhythmia appearance time therefore corresponds to myocardiac protection against the arrhythmic effects of aconitine.

[4] = tested on: rabbit cornea; assay: Local contact anesthesia on the rabbit cornea; type: in vivo; conditions: solution at 0.25% or 1% by weight, eyewash instillation
Text: For example, the derivatives described in Examples 2, 3, 4, 6, 7 and 9 are local anesthetics (100% anesthesia) in a solution at 0.25% or 1% by weight.

[5] = tested on: anesthetized dog; assay: Hemodynamic effects on the anesthetized dog; type: in vivo; conditions: for (dp/dt)l/p, percentage of variation / Cardiac flow, percentage of variation / Cardiac frequency, percentage of variation / Contraction force of the myocardium, percentage of variation / Systolic arterial pressure, percentage of variation / Systolic volume, percentage of variation: Example 2 series, vs pretreatment
Method: Cardiovascular tolerance was studied on the isolated guinea pig auricle, on the anesthetized rat and on the anesthetized dog.
On the anesthetized dog, the results obtained with respect to hemodynamic tolerance are summarized in Table 2 below which indicates the percentages of variation of the hemodynamic parameters in relation to the pre-treatment control period for the derivatives of Examples 2 and 4.
The parameters were recorded by means of:
Catheters connected to pressure sensors (arterial pressure, left ventricular pressure and its first derivative dp/dt);
Electromagnetic flowmeter on the aorta (aortic flow);
Strain gauge placed on the left ventricular myocardium (force of myocardiac contraction).
The derivatives were injected intraveneously, one dose approximately every 30 minutes and their effects were measured 20 minutes after the completion of the injection (length of the injection 2 minutes).

[6] = tested on: anoxic ventricular fibrillation in mice; assay: Cardiac antifibrillatory activity on the mouse (Lawson test); type: in vivo; conditions: ip, intraperitoneal, 10 minutes before chloroform, read-out: ED 50 (protects half the mice against anoxic ventricular fibrillation)
Method: Cardiac antifibrillatory activity of the derivatives of the invention has been verified on the mouse using the Lawson test, in accordance with the method described by J. W. Lawson, J. Pharmacol. Exp. Therp. 160, 22-31 (1968), and C. Narcisse et al., Ann. Pharm. Fr. 37, 325-330 (1979).
The mice (20 per dose) received an intraperitoneal injection of the derivative 10 minutes before being placed in a chloroform saturated atmosphere. As soon as respiratory arrest occurred, the thorax was opened (5 to 10 seconds) and the state of the heart was checked: presence or absence of ventricular fibrillation. The efficacy dose 50 (ED 50) of the derivative being studied is the dose which protects half the mice against anoxic ventricular fibrillation.

[7] = ip, intraperitoneal (I.P.), read-out: LD 50 I.P.
[8] = oral (P.O.), 5 males and 5 females per dose, read-out: LD 50 P.O.
[9] = read-out: Prolongation of time of appearance of ventricular extrasystoles (ESV)
[10] = read-out: Prolongation of time of appearance of ventricular fibrillation (FV)
[11] = read-out: Prolongation of time of appearance of ventricular tachycardium (TV)
[12] = anesthetized dog, i.v., cumulative dose

SMILES: CN(C)CCCOc1cc(-c2ccc(Cl)cc2)n[nH]1 [Example 1, 3-p-Chlorophenyl-5-dimethylaminopropoxy-pyrazole]
- inhibition at 10 µg/mL [1]: 30%
- LD50 [2, 7]: 250 to 500 mg/kg
- LD50 [2, 8]: 1000 mg/kg

SMILES: Cc1c(-c2ccccc2)n[nH]c1OCCN1CCCC1 [Example 2, 3-Phenyl-4-methyl-5-pyrrolidinoethoxy-pyrazole]
- change in vivo at 10 mg/kg [3, 9]: 32%
- change in vivo at 10 mg/kg [3, 10]: 44%
- change in vivo at 10 mg/kg [3, 11]: 30%
- inhibition at 10 µg/mL [1]: 56%
- local anesthesia [4]: 100%
- LD50 [2, 8]: 500 mg/kg
- (dp/dt)l/p, percentage of variation ([5]; i.v., dose 0.5 mg/kg): 0%
- Cardiac flow, percentage of variation ([5]; i.v., dose 0.5 mg/kg): 0%
- Cardiac frequency, percentage of variation ([5]; i.v., dose 0.5 mg/kg): 0%
- Contraction force of the myocardium, percentage of variation ([5]; i.v., dose 0.5 mg/kg): 0%
- Systolic arterial pressure, percentage of variation ([5]; i.v., dose 0.5 mg/kg): +4%
- Systolic volume, percentage of variation ([5]; i.v., dose 0.5 mg/kg): 0%
- (dp/dt)l/p, percentage of variation ([5]; i.v., dose +1 mg/kg): -7%
- Cardiac flow, percentage of variation ([5]; i.v., dose +1 mg/kg): -5%
- Cardiac frequency, percentage of variation ([5]; i.v., dose +1 mg/kg): -8%
- Contraction force of the myocardium, percentage of variation ([5]; i.v., dose +1 mg/kg): 0%
- Systolic arterial pressure, percentage of variation ([5]; i.v., dose +1 mg/kg): 0%
- Systolic volume, percentage of variation ([5]; i.v., dose +1 mg/kg): +3%
- (dp/dt)l/p, percentage of variation ([5]; i.v., dose +3 mg/kg): -30%
- Cardiac flow, percentage of variation ([5]; i.v., dose +3 mg/kg): -5%
- Cardiac frequency, percentage of variation ([5]; i.v., dose +3 mg/kg): -8%
- Contraction force of the myocardium, percentage of variation ([5]; i.v., dose +3 mg/kg): -20%
- Systolic arterial pressure, percentage of variation ([5]; i.v., dose +3 mg/kg): 0%
- Systolic volume, percentage of variation ([5]; i.v., dose +3 mg/kg): +3%
- (dp/dt)l/p, percentage of variation ([5]; i.v., dose +5 mg/kg): -30%
- Cardiac flow, percentage of variation ([5]; i.v., dose +5 mg/kg): -20%
- Cardiac frequency, percentage of variation ([5]; i.v., dose +5 mg/kg): -8%
- Contraction force of the myocardium, percentage of variation ([5]; i.v., dose +5 mg/kg): -20%
- Systolic arterial pressure, percentage of variation ([5]; i.v., dose +5 mg/kg): -8%
- Systolic volume, percentage of variation ([5]; i.v., dose +5 mg/kg): -12%
- (dp/dt)l/p, percentage of variation ([5]; i.v., first dose of +10 mg/kg): -38%
- Cardiac flow, percentage of variation ([5]; i.v., first dose of +10 mg/kg): -37%
- Cardiac frequency, percentage of variation ([5]; i.v., first dose of +10 mg/kg): -8%
- Contraction force of the myocardium, percentage of variation ([5]; i.v., first dose of +10 mg/kg): -10%
- Systolic arterial pressure, percentage of variation ([5]; i.v., first dose of +10 mg/kg): -12%
- Systolic volume, percentage of variation ([5]; i.v., first dose of +10 mg/kg): -31%
- (dp/dt)l/p, percentage of variation ([5]; i.v., second dose of +10 mg/kg): -46%
- Cardiac flow, percentage of variation ([5]; i.v., second dose of +10 mg/kg): -45%
- Cardiac frequency, percentage of variation ([5]; i.v., second dose of +10 mg/kg): -8%
- Contraction force of the myocardium, percentage of variation ([5]; i.v., second dose of +10 mg/kg): -20%
- Systolic arterial pressure, percentage of variation ([5]; i.v., second dose of +10 mg/kg): -20%
- Systolic volume, percentage of variation ([5]; i.v., second dose of +10 mg/kg): -40%
- maximum decrease of force of ventricular myocardiac contractions ([5]; after injection of 4.5 mg/kg to 29 mg/kg): -20%
- Cardiac frequency (result in words) ([5]; anesthetized dog, i.v.): drops moderately
- Systolic arterial pressure (result in words) ([5]; anesthetized dog, i.v.): drops moderately
- force of ventricular myocardiac contractions (result in words) ([5]; anesthetized dog, i.v.): decreases
- cumulative dose after which the decrease of systolic arterial pressure appears [5, 12]: > 4.5 mg/kg
- cumulative dose at which a 20% drop of cardiac flow is reached [5, 12]: greater than 9 mg/kg

SMILES: Clc1ccc(-c2cc(OCCCN3CCCCC3)[nH]n2)cc1 [Example 3, 3-p-Chlorphenyl-5-piperidinopropoxy-pyrazole]
- change in vivo at 10 mg/kg [3, 9]: 6%
- change in vivo at 10 mg/kg [3, 10]: 46%
- change in vivo at 10 mg/kg [3, 11]: 28%
- inhibition at 10 µg/mL [1]: 53%
- local anesthesia [4]: 100%
- LD50 [2, 8]: 700 mg/kg
- ED50 [6]: 35 mg/kg

SMILES: c1ccc(-c2cc(OCCN3CCOCC3)[nH]n2)cc1 [Example 5, 3-Phenyl-5-morpholinoethoxy-pyrazole]
- inhibition at 10 µg/mL [1]: 12%
- LD50 [2, 8]: 1000 mg/kg
- ED50 [6]: 79 mg/kg

SMILES: Clc1ccc(-c2cc(OCCN3CCCCC3)[nH]n2)cc1 [Example 6]
- change in vivo at 3 mg/kg [3, 9]: 13%
- change in vivo at 3 mg/kg [3, 10]: 18%
- change in vivo at 3 mg/kg [3, 11]: 21%
- inhibition at 10 µg/mL [1]: 46%
- local anesthesia [4]: 100%
- LD50 [2, 8]: 500 mg/kg

SMILES: Clc1ccc(-c2cc(OCCN3CCCC3)[nH]n2)cc1 [Example 7]
- change in vivo at 10 mg/kg [3, 9]: 11%
- change in vivo at 10 mg/kg [3, 10]: 32%
- change in vivo at 10 mg/kg [3, 11]: 45%
- inhibition at 10 µg/mL [1]: 45%
- local anesthesia [4]: 100%
- LD50 [2, 7]: 280 mg/kg
- LD50 [2, 8]: 1000 mg/kg
- ED50 [6]: 66 mg/kg

SMILES: CN(C)CCCOc1cc(-c2ccccc2)[nH]n1 [Example 8]
- LD50 [2, 8]: 1000 mg/kg

SMILES: Cc1c(-c2ccccc2)n[nH]c1OCCN1CCCCC1 [Example 11]
- change in vivo at 10 mg/kg [3, 9]: 10%
- change in vivo at 10 mg/kg [3, 10]: 18%
- change in vivo at 10 mg/kg [3, 11]: 11%
- inhibition at 10 µg/mL [1]: 52%
- LD50 [2, 7]: 184 mg/kg
- LD50 [2, 8]: 250 to 500 mg/kg
- ED50 [6]: 42.5 mg/kg

SMILES: c1ccc(-c2cc(OCCN3CCCC3)[nH]n2)cc1 [Example 12]
- inhibition at 10 µg/mL [1]: 35%
- LD50 [2, 8]: 500 to 1000 mg/kg

SMILES: c1ccc(-c2cc(OCCCN3CCCCC3)[nH]n2)cc1 [Example 13]
- inhibition at 10 µg/mL [1]: 44%
- LD50 [2, 8]: 125 to 250 mg/kg

SMILES: Cc1c(-c2ccccc2)n[nH]c1OCCCN1CCCCC1 [Example 14]
- inhibition at 10 µg/mL [1]: 40%
- LD50 [2, 8]: 250 mg/kg
- ED50 [6]: 62 mg/kg
- Cardiac frequency (result in words) ([5]; anesthetized dog, i.v.): drops moderately
- Systolic arterial pressure (result in words) ([5]; anesthetized dog, i.v.): drops moderately
- force of ventricular myocardiac contractions (result in words) ([5]; anesthetized dog, i.v.): does not vary significantly

SMILES: Cc1c(-c2ccccc2)n[nH]c1OCCCN(C)C [Example 15]
- inhibition at 10 µg/mL [1]: 40%
- LD50 [2, 8]: 500 to 1000 mg/kg

SMILES: Cc1c(-c2ccc(Cl)cc2)n[nH]c1OCCN1CCOCC1 [Example 16]
- inhibition at 10 µg/mL [1]: 28%
- LD50 [2, 7]: 125 to 250 mg/kg
- LD50 [2, 8]: 500 to 1000 mg/kg

SMILES: Cc1c(-c2ccc(Cl)cc2)n[nH]c1OCCCN(C)C [Example 17]
- inhibition at 10 µg/mL [1]: 32%
- LD50 [2, 7]: 250 to 500 mg/kg
- LD50 [2, 8]: 500 to 1000 mg/kg

SMILES: Cc1c(-c2ccc(Cl)cc2)n[nH]c1OCCN1CCCC1 [Example 18]
- change in vivo at 10 mg/kg [3, 9]: 2%
- change in vivo at 10 mg/kg [3, 10]: 0%
- change in vivo at 10 mg/kg [3, 11]: 6%
- inhibition at 10 µg/mL [1]: 45%
- LD50 [2, 8]: 750 mg/kg

SMILES: Cc1c(-c2ccc(Cl)cc2)n[nH]c1OCCCN1CCCCC1 [Example 19]
- change in vivo at 10 mg/kg [3, 9]: 15%
- change in vivo at 10 mg/kg [3, 10]: 35%
- change in vivo at 10 mg/kg [3, 11]: 15%
- inhibition at 10 µg/mL [1]: 52%
- LD50 [2, 7]: 62 to 125 mg/kg
- LD50 [2, 8]: 250 mg/kg
- ED50 [6]: 21.5 mg/kg
- Cardiac frequency (result in words) ([5]; anesthetized dog, i.v.): does not change
- Systolic arterial pressure (result in words) ([5]; anesthetized dog, i.v.): drops moderately
- force of ventricular myocardiac contractions (result in words) ([5]; anesthetized dog, i.v.): decreases
- cumulative dose at which a 20% drop of cardiac flow is reached [5, 12]: greater than 4 mg/kg

From patent US4410525A, “Alkoxy pyrazole derivatives and compositions” (Establissements Nativelle S.A., priority 1981, dated 1983)
